Source: US20200278355A1, “CONJUGATED PROTEINS AND USES THEREOF” (THE SCRIPPS RESEARCH INSTITUTE, priority 2017, published 2020)

Target: T1, SCP2 (Homo sapiens, UniProt P22307)
T1 construct: H460 cells or H460 cells expressing luciferase in a 10 cm plate were incubated with indicated compounds; endogenous in cells; host or cells: H460
Test: isoTOP-ABPP of compound-treated H460 cells: SCP2
Assay type: cell-based
Conditions: SCP2 C94; 40 μM
Protocol: For analysis of NR0B1 ligands or control compound reactivity, H460 cells or H460 cells expressing luciferase in a 10 cm plate were incubated with indicated compounds in serum/dye-free RPMI for 3 hours at 37° C. Cells were washed once ice-cold PBS and lysed in 1% Triton X-100 dissolved in PBS with protease inhibitors (Sigma) by sonication. Samples were clarified by centrifugation for 10 min at 16,000×g. Lysate was adjusted to 1.5 mg ml^−1 in 500 μL.
Samples were labeled for 1 h at ambient temperature with 100 μM iodoacetamide alkyne (1, IA-alkyne, 5 μL of 10 mM stock in DMSO). Samples were conjugated by copper-catalyzed azide-alkyne cycloaddition (CuAAC) to isotopically labeled, TEV-cleavable tags (TEV-tags). Heavy CuAAC reaction mixtures was added to the DMSO-treated or shGFP control samples and light CuAAC reaction mixture was added to compound-treated or shNRF2 samples. The CuAAC reaction mixture consisted of TEV tags (light or heavy, 10 μL of 5 mM stocks in DMSO, final concentration=100 μM), 1 mM tris(2-carboxyethyl)phosphine hydrochloride (TCEP; fresh 50× stock in water, final concentration=1 mM), ligand (17× stock in DMSO:t-butanol 1:4, final concentration=100 μM) and 1 mM CuSO4 (50× stock in water, final concentration=1 mM). The samples were allowed to react for 1 h at which point the samples were centrifuged (16,000×g, 5 min, 4° C.). […]

T1 sequence (P22307 whole entry): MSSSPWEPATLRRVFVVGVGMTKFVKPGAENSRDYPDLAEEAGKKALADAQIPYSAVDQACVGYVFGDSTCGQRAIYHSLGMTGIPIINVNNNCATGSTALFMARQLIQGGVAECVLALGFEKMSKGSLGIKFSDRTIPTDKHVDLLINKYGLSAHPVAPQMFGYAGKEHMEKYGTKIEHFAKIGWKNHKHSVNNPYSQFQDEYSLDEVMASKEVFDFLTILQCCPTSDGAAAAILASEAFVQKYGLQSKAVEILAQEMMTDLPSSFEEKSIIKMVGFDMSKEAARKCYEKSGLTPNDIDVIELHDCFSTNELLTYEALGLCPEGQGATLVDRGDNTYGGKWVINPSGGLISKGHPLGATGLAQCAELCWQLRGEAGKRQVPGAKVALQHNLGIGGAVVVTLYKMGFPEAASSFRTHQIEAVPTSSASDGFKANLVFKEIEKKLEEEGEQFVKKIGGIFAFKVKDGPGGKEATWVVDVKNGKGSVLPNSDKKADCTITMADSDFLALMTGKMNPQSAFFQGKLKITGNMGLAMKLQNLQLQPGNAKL

Compound: O=C(c1ccc(N2CCOCC2)cc1)N1CCCC(N(Cc2ccccc2)C(=O)CCl)CC1 (stereo not shown) [BPK-29, N-benzyl-2-chloro-N-(1-(4-morpholinobenzoyl)azepan-4-yl)acetamide]
- BPK-29-competed isoTOP-ABPP analysis: Yes (Competed defined as showing R value ≥ 3.0 at 40 μM of test compound)
